From US20240000734A1, “PHARMACEUTICAL COMPOSITION HAVING AN ANALGAESIC AND AN ANTIHISTAMINE FOR TREATING RESPIRATORY DISEASES” (LABORATORIOS SILANES S.A. DE C.V., priority 2020, published 2024)

Columns and labels:
[1] = tested on: patients with uncomplicated acute bronchitis; conditions: cited from earlier work; for Adverse events: P=0.008; for median number of days with cough: oral, placebo 11 days, not statistically significant
clinical = conditions: both, human, in vivo, po, 800 mg

Row | Cmax (clinical) [µg/mL] | Tmax (clinical) [h] | AUC (clinical; AUC0^t) [µg·h/mL] | AUC (clinical; AUC0^∞) [µg·h/mL] | SMILES | Adverse events [1] [%] | median number of days with cough [1] [days]
1 | – | – | – | – | CC1(C)S[C@@H]2[C@H](NC(=O)[C@H](N)c3ccc(O)cc3)C(=O)N2[C@H]1C(=O)O [amoxicillin] | 12 | 11
2 | 54.6 | 1.35 ± 0.75 | 185 | 192 | CC(C)Cc1ccc(C(C)C(=O)O)cc1 (racemic) [Ibuprofen, (±)-2-(4-isobutylphenyl) propionic acid] | 5 | 9
